Laboratory results from publication PMC10482267, “Safety, tolerability, pharmacokinetics, and pharmacodynamics of single and multiple doses of aficamten in healthy Chinese participants: a randomized, double-blind, placebo-controlled, phase 1 study” (Frontiers in Pharmacology, 2023).
Several values for one entry are separate records, joined by “and”; a condition that tells them apart may be missing. Equal values may be shown once. Read-outs that look alike come from different tables or passages of the source.

Tests used:
[1] = Plasma pharmacokinetics of aficamten and metabolites after single and multiple oral doses, phase 1 study; assay type: in vivo, human; conditions: for AR_AUC (accumulation ratio based on AUC0-24) / AR_Cmax (accumulation ratio based on Cmax): day 14 vs day 1; for Tmax / AUC(0-inf) / AUC(0-t) / Cmax / half-life: human
Experimental: This was a double-blind, randomized, placebo-controlled, phase 1 study including SAD and MD dose cohorts (Figure 1). […] For the second single-dose cohort, 20 mg was chosen as the escalated dose according to the dosing plan scheduled in the phase 3 study (CY 6031: NCT05186818). Furthermore, a multiple oral dose of 5 mg once daily (QD) was selected to explore the steady-state PK exposure in Chinese participants and to compare the findings with the MAD 5 mg QD results in the study CY 6011.
A total of 28 participants were enrolled in the study, with eight participants per SAD cohort (10 mg and 20 mg) and 12 participants in the MD cohort (5 mg). The sample size chosen for this study was based on other precedent PK studies of similar nature and was not based on power calculations. In each SAD cohort, eight eligible participants were randomized in 3:1 ratio to receive a single oral dose of aficamten or the matching placebo after overnight fasting. The dose escalation criteria (see Supplementary File S1) had to be met to proceed from the SAD 10 mg cohort to the SAD 20 mg cohort. In addition, the SAD 20 mg cohort started at least 5 days after the last subject’s administration in the SAD 10 mg cohort. Upon the completion of the SAD 20 mg cohort, the study proceeded to the MD 5 mg cohort when the dose escalation criteria were met. The MD cohort started at least 5 days later after the last subject’s administration in the SAD 20 mg cohort. In the MD cohort, 12 eligible participants were enrolled and randomized in 3:1 ratio to receive multiple oral doses of 5 mg of aficamten or the matching placebo under fasting conditions for 14 days. The investigator would determine if stopping rules (see Supplementary File S2) were met in this cohort.
(§1) Blood samples (4 mL) for plasma PK analysis of aficamten and its metabolites (mono-hydroxylated derivative CK-3834282 and its diastereomer CK-3834283) were collected into K2EDTA tubes in the SAD cohorts at the following time points: at pre-dose and at 0.25, 0.5, 1, 1.5, 2, 2.5, 3, 4, 6, 8, 12, 16, 24, 36, 48, 72, 96, and 216 h post-dose. In the MD cohort, blood samples were collected at pre-dose and at 0.25, 0.5, 1, 1.5, 2, 2.5, 3, 4, 6, 8, 12, and 16 h post-dose on day 1; at pre-dose and at 1.5 h post-dose on day 2, days 4–6, and day 9; at pre-dose on day 3, days 7–8, and days 10–13; at pre-dose and at 0.25, 0.5, 1, 1.5, 2, 2.5, 3, 4, 6, 8, 12, 16, 24, 36, 48, 72, 168, and 216 h post-dose on day 14. After collection, blood samples were centrifuged at 1700 g for 10 min at 4°C ± 2°C; plasma was aliquoted and stored at −80°C ± 20°C until analyzed. Meanwhile, samples for urine PK analysis of aficamten were collected in the MD cohort as follows: pre-dose, 0–4 h, 4–8 h, 8–12 h, and 12–24 h on days 1 and 14, respectively.
(§2) The samples were determined using a validated ultra-performance liquid chromatography-tandem mass spectrometry (UPLC-MS/MS) method. The detection was performed on a tandem mass spectrometer in the electrospray ionization (ESI)-positive mode. The multiple reactions monitoring (MRM) mode was applied to monitor the following ion transitions: m/z 338.2→213.2 for aficamten and m/z 354.3→ 229.3 for metabolite CK-3834282 and its diastereomer CK-3834283. Note that the diastereomers were separated from chromatography during the analysis. The calibration curves of the plasma and urine samples were linear, ranging from 1 to 500 ng/mL, and the intra- and inter-run accuracies (RE%) and precisions (RSD%) were within ±15%. In addition, the selectivity, matrix effect, extraction recovery, carryover, and stability at different conditions were also fully evaluated.
The plasma PK parameters were evaluated using the plasma concentrations by the non-compartmental model approach using WinNonlin (version 8.3, Certara LP, Princeton, NJ, USA) and were summarized descriptively by the cohort and dose. […]

[2] = Urine pharmacokinetics of aficamten, MD cohort; assay type: in vivo, human; conditions: for Ae(0–24) (amount excreted unchanged in urine) / CL renal: MD 5 mg, mean ± SD; for CL renal: human, urine, oral, 5 mg, read-out: CLr (renal clearance) (converted)
Experimental: as §1, §2
The urine PK parameters (MD cohort) were calculated as follows: CLR (renal clearance), Ae (amount of drug excreted unchanged in the urine), and Fe (percentage of drug excreted unchanged in the urine).

[3] = MD 5 mg once daily, mean ± SD, listed as Aficamten

Q: Which “AR_AUC (accumulation ratio based on AUC0-24)” value ([1]; MD 5 mg once daily, mean ± SD) does the source give for `CCc1nc(-c2ccc3c(c2)CC[C@H]3NC(=O)c2cnn(C)c2)no1` [aficamten] here?
A: 4.2 and 4.16

Q: What about the “AR_Cmax (accumulation ratio based on Cmax)” value ([1]; MD 5 mg once daily, mean ± SD) of the same molecule?
A: 1.8

Q: What about the “AR_AUC (accumulation ratio based on AUC0-24)” value [1, 3] of the same molecule?
A: 4.2 ± 0.4

Q: And the “AR_Cmax (accumulation ratio based on Cmax)” value [1, 3]?
A: 1.8 ± 0.6

Q: And the t1/2 ([1]; MD 5 mg, day 14, plasma, mean ± SD)?
A: 76.8 ± 11.8 h

Q: And the “tmax (tmax,ss)” value ([1]; MD 5 mg, day 14, plasma, median (minimum, maximum))?
A: 0.5 (0.25, 2.0) h

Q: What about the CL/F ([1]; MD 5 mg, day 14, mean ± SD) of the same molecule?
A: 3.8 ± 0.6 L/h

Q: What about the V/F ([1]; MD 5 mg, day 14, mean ± SD) of the same molecule?
A: 412.7 ± 66.1 L

Q: What about the CL/F ([1]; SAD 10 mg, mean ± SD) of the same molecule?
A: 3.0 ± 0.19 L/h

Q: What about the V/F ([1]; SAD 10 mg, mean ± SD) of the same molecule?
A: 320.3 ± 51.3 L

Q: And the t1/2 ([1]; SAD 20 mg, plasma, mean ± SD)?
A: 77.3 ± 13.6 h

Q: What about the CL/F ([1]; SAD 20 mg, mean ± SD) of the same molecule?
A: 3.4 ± 0.2 L/h

Q: What about the V/F ([1]; SAD 20 mg, mean ± SD) of the same molecule?
A: 371.9 ± 55.4 L

Q: What about the “dose proportionality of plasma exposure (AUC0-24 and Cmax), in words” value ([1]; dose range 5–20 mg) of the same molecule?
A: dose-proportional

Q: What about the Tmax ([1]; oral, MD 5 mg, day 1, plasma, median (minimum, maximum), read-out: tmax) of the same molecule?
A: 0.5 h

Q: And the AUC(0-inf) ([1]; oral, SAD 10 mg, plasma, mean ± SD)?
A: 3340 ± 223 ng·h/mL

Q: And the Tmax ([1]; oral, SAD 10 mg, plasma, median (minimum, maximum), read-out: tmax)?
A: 0.75 h

Q: And the AUC(0-inf) ([1]; oral, SAD 20 mg, plasma, mean ± SD)?
A: 5990 ± 415 ng·h/mL

Q: And the Tmax ([1]; oral, SAD 20 mg, plasma, median (minimum, maximum), read-out: tmax)?
A: 0.5 h

Q: And the AUC(0-t) ([1]; plasma, oral, 5 mg, MD 5 mg once daily, day 1, plasma, mean ± SD, N = 9, read-out: AUC0-24)?
A: 325 ± 32.6 ng·h/mL

Q: And the AUC(0-t) ([1]; plasma, oral, 5 mg, MD 5 mg once daily, day 14, plasma, mean ± SD, N = 9, read-out: AUC0-24)?
A: 1360 ± 215 ng·h/mL

Q: And the AUC(0-t) ([1]; plasma, oral, 5 mg, MD 5 mg, day 1, plasma, mean ± SD, read-out: AUC0-t)?
A: 324 ± 32.5 ng·h/mL

Q: And the Cmax ([1]; plasma, oral, 5 mg, MD 5 mg, day 1, plasma, mean ± SD, read-out: Cmax)?
A: 72.6 ± 19.5 ng/mL

Q: And the half-life ([1]; plasma, oral, 5 mg, MD 5 mg, day 1, plasma, mean ± SD, read-out: t1/2 (converted))?
A: 38.6 ± 16.1 h

Q: And the Cmax ([1]; plasma, oral, 5 mg, MD 5 mg, day 14, plasma, mean ± SD, read-out: Cmax (Cmax,ss))?
A: 122 ± 35.2 ng/mL

Q: And the half-life ([1]; plasma, oral, 5 mg, MD 5 mg, day 14, plasma, mean ± SD, read-out: t1/2 (converted))?
A: ~77 h

Q: What about the AUC(0-t) ([1]; plasma, oral, 10 mg, SAD 10 mg, plasma, mean ± SD, read-out: AUC0-t) of the same molecule?
A: 2780 ± 249 ng·h/mL

Q: And the Cmax ([1]; plasma, oral, 10 mg, SAD 10 mg, plasma, mean ± SD, read-out: Cmax)?
A: 115 ± 29.9 ng/mL

Q: What about the half-life ([1]; plasma, oral, 10 mg, SAD 10 mg, plasma, mean ± SD, read-out: t1/2 (converted)) of the same molecule?
A: 73.8 ± 10.2 h

Q: What about the AUC(0-t) ([1]; plasma, oral, 20 mg, SAD 20 mg, plasma, mean ± SD, read-out: AUC0-t) of the same molecule?
A: 5290 ± 372 ng·h/mL

Q: And the Cmax ([1]; plasma, oral, 20 mg, SAD 20 mg, plasma, mean ± SD, read-out: Cmax)?
A: 227 ± 71.8 ng/mL

Q: And the Tmax ([1]; plasma, oral, all cohorts, read-out: time of peak concentration (tmax day 1, tmax,ss day 14))?
A: 0.5 to 0.75 h

Q: And the AUC(0-t) ([1]; plasma, po, 10 mg, SAD 10 mg single oral dose, fasted, plasma, mean ± SD, N = 6, read-out: AUC0-24)?
A: 670 ± 85 ng·h/mL

Q: What about the AUC(0-t) ([1]; plasma, po, 20 mg, SAD 20 mg single oral dose, fasted, plasma, mean ± SD, N = 6, read-out: AUC0-24) of the same molecule?
A: 1300 ± 151 ng·h/mL

Q: What about the half-life ([1]; plasma, po, across single oral dose 10 mg and 20 mg and 14 days QD 5 mg, read-out: mean half-life) of the same molecule?
A: 74 to 77 h

Q: And the half-life ([1]; plasma, po, single oral dose of 10 mg and 20 mg of aficamten, across both doses, read-out: t1/2 (arithmetic mean))?
A: 74 to 77 h

Q: What about the “Ae(0–24) (amount excreted unchanged in urine)” value ([2]; day 1, urine) of the same molecule?
A: 3.2 ± 2.6 µg

Q: What about the “Ae(0–24) (amount excreted unchanged in urine)” value ([2]; day 14, urine) of the same molecule?
A: 18.5 ± 8.0 µg

Q: What about the CL renal ([2]; day 1, urine) of the same molecule?
A: 0.158 mL/min

Q: And the CL renal ([2]; day 14, urine)?
A: 0.228 mL/min

Q: And the “drug excreted with urine in unchanged form” value ([2]; multiple doses of 5 mg)?
A: about 0.37%
